The results in this text go back to patent US20110077270A1, “Compositions and Methods for Treating Ocular Inflammation with Lower Risk of Increased Intraocular Pressure” (priority 2009, published 2011).

Experiment [1] relates to leukocytes (PMN) in aqueous humor. Kind of experiment: Leukocytes (PMN) measurement in aqueous humor, rabbit paracentesis model. The format is in vivo. Conditions: second paracentesis; for PMN numbers in aqueous humor: individual eye; for PMN numbers in aqueous humor, Mean: group mean. On the procedure: Each rabbit was placed in a restraint device and tagged with the alphanumeric code. The formulations were instilled (50 μl) into the conjunctival sac of both eyes 180, 120, 90 and 30 min before the first paracentesis; then 15, 30, 90 min after the first paracentesis. To perform the first paracentesis the animals were anaesthetized by intravenous injection of 5 mg/kg Zoletil® (Virbac; 2.5 mg/kg tiletamine HCl and 2.5 mg/kg zolazepam HCl) and one drop of local anesthetic (Novesina®, Novartis) was administered to the eye. Anterior chamber paracentesis was performed with a 26 G needle attached to a tuberculin syringe; the needle was introduced into the anterior chamber through the cornea, taking care not to damage the tissues. Two hours after the first paracentesis, the animals were sacrificed with 0.4 ml Tanax® (Intervet International B.V.) and the second paracentesis was performed. About 100 μl of aqueous humor were removed at the second paracentesis. Aqueous humor was immediately split in four aliquots and stored at −80° C. until analysis. Then both eyes were enucleated and the iris-ciliary body was carefully excised, placed in polypropylene tubes, and stored at −80° C. until analysis.
For the determination of the number of leukocytes we used a haemocytometer (Improved Neubauer Chamber; Bright-line, Hausser Scientific) and a Polyvar 2 microscope (Reichert-Jung).

The test system of experiment [2] is human corneal epithelial cells (HCECs). Put plainly: IL-1β-stimulated cytokine production in primary human corneal epithelial cells (30-cytokine Luminex kit). The settings on record: IL-1β-stimulated HCECs, 18 h.
Experimental: Primary HCECs were seeded in 24-well plates. […] Each treatment was performed in triplicate. Media were collected and used for determination of cytokine content using a 30-cytokine Luminex kit.
Median fluorescence intensity (WI) was used to obtain the concentration of each cytokines in pg/ml based on the standard curve of each cytokine assayed by Luminex. The linear range of the standard curve for each cytokine was used for determination of cytokine concentration. Duplicate values for each sample were averaged. Data were expressed as mean±SD. Statistical analysis was performed using one-way ANOVA-Dunnett's test, and P<0.05 was considered statistically significant.

Each structure is given as a SMILES string. Several values for one entry are separate records, joined by “and”; a condition that tells them apart may be missing. Equal values may be shown once.

Consider `C[C@@H]1C[C@H]2[C@@H]3CCC4=CC(=O)C=C[C@]4(C)[C@@]3(F)[C@@H](O)C[C@]2(C)[C@@]1(O)C(=O)CO` [Dex, dexamethasone, reference compound], for which the “PMN numbers in aqueous humor” value in experiment [1] (0.1% topical formulation) is 20 number/μl (3×) and 50 number/μl and 40 number/μl and 30 number/μl.

Regarding `Cc1ccc2c(NCC(O)(CC(C)(C)c3cc(F)cc4c3OCC4)C(F)(F)F)cccc2n1` (stereo not drawn) [BOL-303242-X], the entries for the “PMN numbers in aqueous humor, Mean” value in experiment [1] (0.1% topical formulation), in experiment [1] (0.5% topical formulation) and in experiment [1] (1% topical formulation) were 28.333 number/μl, 21.250 number/μl and 28.750 number/μl, respectively. Besides, the “PMN numbers in aqueous humor” value in experiment [1] (0.1% topical formulation, listed as BOL) is 20 number/μl (4×) and 40 number/μl and 50 number/μl; in experiment [1] (0.5% topical formulation, listed as BOL) it was 40 number/μl (2×) and 20 number/μl (3×) and 10 number/μl (3×); in experiment [1] (1% topical formulation, listed as BOL), 30 number/μl (3×) and 20 number/μl (3×) and 40 number/μl (2×). Further, in experiment [2], the “Potency of inhibition of IL-1β-stimulated production of GM-CSF, IL-8, and RANTES relative to dexamethasone” value is “less potency compared to dexamethasone”. For the same compound, the “Inhibition of IL-1β-stimulated cytokine production on 6 cytokines (IL-6, IL-7, MCP-1, TGF-α, TNF-α and VEGF)” value in experiment [2] (comparable potency of both) is reported as “significantly inhibited”.
